From patent publication US20250325566A1, “C[…]-9-TETRAHYDROCANNABINOL AND TERPENES” (Vertanical GmbH, priority 2022, published 2025)

Each compound was assayed on different cancer cell lines (MCF-7, HCT-116, CaCO2) (assay: MTT cytotoxicity assay, single substances vs combination, different cancer cell lines). Conditions: THC + alpha-bisabolol + guaiol vs single substance, 48 h.
Assay type: cell-based
Experimental: The following cell lines were used for the experiment: CaCO2 (Pharmacelsus), HCT-116 (ATCC, Cat #CCL-247), and MCF-7 (ECACC, Cat #86012803). All cell lines were maintained at 37° C., 5% CO2 and 95% humidity. The medium was replaced three times per week and the monolayer was sub-cultured in a ratio of 1:5 when the culture reaches a confluence of 80%. The specific cultivation medium for each cell line was as follows: CaCO2 cell line was cultured in DMEM (PAN-Biotech, Cat #P04-03500) supplemented with 10% FBS Good (PAN-Biotech, Cat #P40-37500) and 1% NEAA (PAN-Biotech, Cat #P08-32100), HCT-116 cell line was cultured in McCoy's A5 medium (PAN-Biotech, Cat #P04-05500) supplemented with 10% FBS Good, and MCF-7 cell line was cultured in RPMI 1640 (PAN-Biotech, Cat #P04-16500) supplemented with 10% FBS and 2 mM GlutaMAX (Gibco, Cat #35050). All cell culture media were routinely supplemented with 1% Penicillin/Streptomycin (PAN-Biotech, Cat #P06-07100).
For the cytotoxicity assay, cells were seeded into 96-well flat bottom microtiter plates at a density of 10,000 cells/well and allowed to attach to the plate for 24 hours before the start of the experiment. […]
Quantification of viable cells was performed by using commercial MTT assay kit (Cell Proliferation Kit I (MTT), Sigma, Cat #11465007001). […] The formazan crystals formed are solubilized and the resulting coloured solution is quantified.
Cells were prepared as described in Example 1.1. […] Conversion of MTT to formazan was recorded by measuring the absorbance at 570 nm with reference wavelength 650 nm by using a spectrophotometer (Spectramax Plus, Molecular Devices). […]
For `CC(C)=CCC[C@](C)(O)[C@@H]1CC=C(C)CC1` [alpha-bisabolol], the “IC50 values in combinatory treatment compared to single treatment” value (“IC50 values … compared to single treatment” for short) was “remarkably reduced”.
For `C[C@H]1CC[C@@H](C(C)(C)O)CC2=C1CC[C@@H]2C` [guaiol], the “IC50 values … compared to single treatment” value was “remarkably reduced”.
For `CCCCCc1cc(O)c2c(c1)OC(C)(C)[C@@H]1CCC(C)=C[C@@H]21` [THC, delta-9-tetrahydrocannabinol], the “IC50 values … compared to single treatment” value was “remain unchanged”.
